Results taken from patent publication US10344060B2 (priority 2013, dated 2019).
Where two headings read alike, the source gives them in different places.

Experiments:
Experiment in all cases: cell-based
Type in all cases: cell-based
hNav1.7 = hNav1.7 (Homo sapiens, UniProt Q15858); conditions: read-out: PX hNav1.7 Tonic IC50
hNav1.4 = hNav1.4 (Homo sapiens, UniProt P35499); conditions: Table 12; for IC50: PatchXpress, tonic block, read-out: PX hNav1.4 Tonic IC50; for Nav1.4/Nav1.7: ratio of PX tonic IC50 values
hNav1.6 = hNav1.6 (Homo sapiens, UniProt Q9UQD0); conditions: Table 15; for Nav1.6/Nav1.7: ratio of PX tonic IC50 values; for IC50: read-out: PX hNav1.6 Tonic IC50
[1] = Table 12, PatchXpress, tonic block

hNav1.4, sequence (P35499 whole entry): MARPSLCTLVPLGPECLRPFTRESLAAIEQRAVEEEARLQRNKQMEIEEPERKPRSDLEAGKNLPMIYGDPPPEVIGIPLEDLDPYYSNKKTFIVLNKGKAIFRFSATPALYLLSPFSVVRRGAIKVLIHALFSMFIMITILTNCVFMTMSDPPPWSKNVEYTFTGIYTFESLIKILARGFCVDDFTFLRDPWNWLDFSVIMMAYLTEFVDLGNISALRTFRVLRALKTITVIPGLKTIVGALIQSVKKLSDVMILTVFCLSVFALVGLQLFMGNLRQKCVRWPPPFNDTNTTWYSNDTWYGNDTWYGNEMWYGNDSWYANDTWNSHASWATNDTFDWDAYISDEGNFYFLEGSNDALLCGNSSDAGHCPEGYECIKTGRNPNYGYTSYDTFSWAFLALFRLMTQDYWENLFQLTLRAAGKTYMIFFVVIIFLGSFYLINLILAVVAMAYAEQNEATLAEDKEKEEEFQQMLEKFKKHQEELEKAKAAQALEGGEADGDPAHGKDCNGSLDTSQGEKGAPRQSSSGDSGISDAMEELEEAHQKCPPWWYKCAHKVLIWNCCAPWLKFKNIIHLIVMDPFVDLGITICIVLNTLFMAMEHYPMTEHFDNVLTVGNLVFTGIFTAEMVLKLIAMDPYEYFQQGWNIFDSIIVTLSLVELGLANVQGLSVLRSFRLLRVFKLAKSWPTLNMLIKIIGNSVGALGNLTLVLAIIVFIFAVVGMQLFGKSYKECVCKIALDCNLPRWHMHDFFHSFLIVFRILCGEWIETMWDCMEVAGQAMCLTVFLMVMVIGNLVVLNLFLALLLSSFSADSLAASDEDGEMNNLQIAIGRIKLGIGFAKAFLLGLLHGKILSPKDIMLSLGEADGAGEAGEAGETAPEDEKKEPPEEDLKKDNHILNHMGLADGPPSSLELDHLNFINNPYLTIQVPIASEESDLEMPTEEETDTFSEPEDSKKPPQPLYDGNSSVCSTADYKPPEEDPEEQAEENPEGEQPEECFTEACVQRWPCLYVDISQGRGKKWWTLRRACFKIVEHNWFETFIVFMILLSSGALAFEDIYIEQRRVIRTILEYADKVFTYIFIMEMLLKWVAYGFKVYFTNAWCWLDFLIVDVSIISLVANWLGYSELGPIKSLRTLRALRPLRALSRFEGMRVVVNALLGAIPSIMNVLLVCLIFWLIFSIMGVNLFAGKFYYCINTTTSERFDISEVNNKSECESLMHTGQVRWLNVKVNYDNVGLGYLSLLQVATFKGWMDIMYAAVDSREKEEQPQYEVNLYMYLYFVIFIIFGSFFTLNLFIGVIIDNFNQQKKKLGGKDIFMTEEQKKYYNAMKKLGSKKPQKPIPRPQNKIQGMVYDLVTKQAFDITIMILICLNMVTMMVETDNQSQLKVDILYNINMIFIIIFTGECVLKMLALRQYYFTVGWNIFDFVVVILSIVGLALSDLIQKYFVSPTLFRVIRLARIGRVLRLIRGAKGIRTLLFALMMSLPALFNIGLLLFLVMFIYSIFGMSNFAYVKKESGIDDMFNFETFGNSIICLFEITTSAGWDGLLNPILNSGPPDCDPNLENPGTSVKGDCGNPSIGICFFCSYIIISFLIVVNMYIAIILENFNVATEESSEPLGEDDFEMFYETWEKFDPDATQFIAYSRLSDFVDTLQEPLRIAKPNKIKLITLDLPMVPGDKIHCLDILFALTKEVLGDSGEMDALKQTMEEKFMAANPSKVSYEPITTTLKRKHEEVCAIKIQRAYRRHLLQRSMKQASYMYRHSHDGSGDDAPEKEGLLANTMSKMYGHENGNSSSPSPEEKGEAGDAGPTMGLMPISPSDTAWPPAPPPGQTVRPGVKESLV
hNav1.6, sequence (Q9UQD0 whole entry): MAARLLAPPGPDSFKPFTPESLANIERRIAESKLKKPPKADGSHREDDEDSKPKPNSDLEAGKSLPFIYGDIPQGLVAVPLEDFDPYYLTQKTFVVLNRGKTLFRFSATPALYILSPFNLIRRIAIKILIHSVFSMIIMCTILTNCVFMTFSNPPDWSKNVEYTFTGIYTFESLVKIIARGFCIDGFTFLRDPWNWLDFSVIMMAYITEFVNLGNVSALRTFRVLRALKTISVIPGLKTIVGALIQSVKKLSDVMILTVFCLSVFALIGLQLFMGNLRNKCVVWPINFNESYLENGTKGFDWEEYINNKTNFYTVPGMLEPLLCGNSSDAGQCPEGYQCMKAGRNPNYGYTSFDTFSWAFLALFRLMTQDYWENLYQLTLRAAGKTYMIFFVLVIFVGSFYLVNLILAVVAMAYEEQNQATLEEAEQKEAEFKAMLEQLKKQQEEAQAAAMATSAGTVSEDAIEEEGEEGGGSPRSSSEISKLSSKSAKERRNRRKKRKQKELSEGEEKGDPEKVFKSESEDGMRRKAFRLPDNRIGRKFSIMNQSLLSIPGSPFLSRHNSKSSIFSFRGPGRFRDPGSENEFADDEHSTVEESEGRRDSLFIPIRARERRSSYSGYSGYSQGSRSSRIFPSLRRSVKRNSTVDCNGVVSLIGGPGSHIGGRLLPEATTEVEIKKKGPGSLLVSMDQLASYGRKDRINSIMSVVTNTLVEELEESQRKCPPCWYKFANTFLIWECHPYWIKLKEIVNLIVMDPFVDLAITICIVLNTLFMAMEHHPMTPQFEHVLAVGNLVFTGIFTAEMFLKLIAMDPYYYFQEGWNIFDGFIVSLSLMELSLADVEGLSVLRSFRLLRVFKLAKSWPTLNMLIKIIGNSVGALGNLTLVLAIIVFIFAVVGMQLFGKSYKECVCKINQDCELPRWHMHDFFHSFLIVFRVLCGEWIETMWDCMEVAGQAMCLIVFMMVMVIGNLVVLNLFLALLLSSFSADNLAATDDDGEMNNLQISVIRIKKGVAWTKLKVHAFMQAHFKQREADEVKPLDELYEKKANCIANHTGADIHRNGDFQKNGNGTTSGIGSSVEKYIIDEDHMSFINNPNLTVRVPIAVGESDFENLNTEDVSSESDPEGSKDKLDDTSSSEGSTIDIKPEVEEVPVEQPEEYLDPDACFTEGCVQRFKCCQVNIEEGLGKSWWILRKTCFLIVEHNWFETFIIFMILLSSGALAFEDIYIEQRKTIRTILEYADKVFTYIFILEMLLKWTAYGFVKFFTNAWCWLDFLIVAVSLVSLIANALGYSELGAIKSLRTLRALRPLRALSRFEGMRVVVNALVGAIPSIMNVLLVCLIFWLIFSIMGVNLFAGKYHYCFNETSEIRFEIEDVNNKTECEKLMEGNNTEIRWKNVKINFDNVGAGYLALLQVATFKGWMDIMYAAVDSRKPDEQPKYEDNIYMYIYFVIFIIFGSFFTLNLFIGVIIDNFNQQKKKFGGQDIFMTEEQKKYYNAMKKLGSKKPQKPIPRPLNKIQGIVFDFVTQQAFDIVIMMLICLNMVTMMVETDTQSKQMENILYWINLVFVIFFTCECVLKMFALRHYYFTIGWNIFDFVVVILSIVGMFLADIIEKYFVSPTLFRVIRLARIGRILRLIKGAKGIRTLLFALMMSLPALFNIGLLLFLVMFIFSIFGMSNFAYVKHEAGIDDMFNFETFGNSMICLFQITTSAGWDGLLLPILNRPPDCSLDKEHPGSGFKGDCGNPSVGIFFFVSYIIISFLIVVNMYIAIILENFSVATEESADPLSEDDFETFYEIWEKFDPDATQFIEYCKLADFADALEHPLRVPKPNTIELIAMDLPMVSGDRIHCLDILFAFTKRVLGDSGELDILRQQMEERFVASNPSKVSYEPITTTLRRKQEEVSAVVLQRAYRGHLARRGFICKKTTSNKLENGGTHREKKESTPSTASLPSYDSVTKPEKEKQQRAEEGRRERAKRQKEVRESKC

Structure (SMILES)	IC50 (hNav1.7; [1]) [µM]	IC50 (hNav1.4) [µM]	Nav1.4/Nav1.7 (hNav1.4)	Nav1.6/Nav1.7 (hNav1.6)	IC50 (hNav1.6) [µM]	IC50 (hNav1.7; Table 15) [µM]
C#CC[C@@H]1NC(=O)[C@@H]2CSSC[C@H](NC(=O)[C@H](Cc3ccc(O)cc3)NC(=O)[C@@H](N)CC#N)C(=O)N[C@@H](CCC(N)=O)C(=O)N[C@@H](CCCCN)C(=O)N[C@@H](Cc3c[nH]c4ccccc34)C(=O)N[C@@H](CCCC)C(=O)N[C@@H](Cc3c[nH]c4ccccc34)C(=O)N[C@@H]([C@@H](C)O)C(=O)N[C@H]3CSSC[C@H](NC(=O)[C@H](CCCNC(=N)N)NC(=O)[C@H](CC(C)C)NC(=O)CNC1=O)C(=O)N[C@@H](CCCCN)C(=O)N[C@@H](CC(C)C)C(=O)N[C@@H](Cc1c[nH]c4ccccc14)C(=O)N[C@H](C(=O)N[C@@H](CCCNC(=N)N)C(=O)N[C@@H](CCCCN)C(=O)N[C@@H](CCC(=O)O)C(=O)N[C@H](C(N)=O)[C@@H](C)CC)CSSC[C@H](NC(=O)[C@H](C)NC(=O)[C@H](CCCNC(=N)N)NC(=O)[C@H](CCC(=O)O)NC(=O)[C@H](CO)NC(=O)[C@H](CC(=O)O)NC3=O)C(=O)N2 [compound 732]	0.00087	0.253	291	1972	1.72	
C#CC[C@@H]1NC(=O)[C@@H]2CSSC[C@H](NC(=O)[C@H](Cc3ccc(O)cc3)NC(=O)[C@@H](N)CC#N)C(=O)N[C@@H](CCC(N)=O)C(=O)N[C@@H](CCCCN)C(=O)N[C@@H](Cc3c[nH]c4ccccc34)C(=O)N[C@@H](CCCC)C(=O)N[C@@H](Cc3c[nH]c4ccccc34)C(=O)N[C@@H]([C@@H](C)O)C(=O)N[C@H]3CSSC[C@H](NC(=O)[C@H](CCCNC(=N)N)NC(=O)[C@H](CC(C)C)NC(=O)CNC1=O)C(=O)N[C@@H](CCCCN)C(=O)N[C@@H](CC(C)C)C(=O)N[C@@H](Cc1c[nH]c4ccccc14)C(=O)N[C@H](C(=O)N[C@@H](CCCNC(=N)N)C(=O)N[C@@H](CCCCN)C(=O)N[C@@H](CCC(=O)O)C(=O)N[C@H](C(N)=O)[C@@H](C)CC)CSSC[C@H](NC(=O)[C@H](CCC(=O)O)NC(=O)[C@H](CCCNC(=N)N)NC(=O)[C@H](CCCCN)NC(=O)[C@H](CO)NC(=O)[C@H](CC(=O)O)NC3=O)C(=O)N2 [compound 733]	0.00119	0.13	109	147	0.175	
C#CC[C@H](NC(=O)[C@@H](N)CCC(=O)O)C(=O)N[C@@H](Cc1ccc(O)cc1)C(=O)N[C@H]1CSSC[C@@H]2NC(=O)[C@@H]3CSSC[C@@H](C(=O)N[C@@H](CCCNC(=N)N)C(=O)N[C@@H](CCCCN)C(=O)N[C@@H](CCC(=O)O)C(=O)N[C@H](C(N)=O)[C@@H](C)CC)NC(=O)[C@H](Cc4c[nH]c5ccccc45)NC(=O)[C@H](CC(C)C)NC(=O)[C@H](CCCCN)NC(=O)[C@H](CSSC[C@H](NC(=O)[C@H]([C@@H](C)O)NC(=O)[C@H](Cc4c[nH]c5ccccc45)NC(=O)[C@H](CCCC)NC(=O)[C@H](Cc4c[nH]c5ccccc45)NC(=O)[C@H](CCCCN)NC(=O)[C@H](CCC(N)=O)NC1=O)C(=O)N[C@@H](CC(=O)O)C(=O)N[C@@H](CCC(=O)O)C(=O)N[C@@H](CCCCN)C(=O)N[C@@H](CCCNC(=N)N)C(=O)N[C@@H](C)C(=O)N3)NC(=O)[C@H](CCCNC(=N)N)NC(=O)[C@H](CC(C)C)NC(=O)CNC(=O)[C@H](CCC(=O)O)NC2=O [compound 734]	0.00233	1.05	452	1233	2.87	
C#CC[C@H](NC(=O)[C@@H](N)CCC(=O)O)C(=O)N[C@H]1CSSC[C@@H]2NC(=O)[C@@H]3CSSC[C@@H](C(=O)N[C@@H](CCCNC(=N)N)C(=O)N[C@@H](CCCCN)C(=O)N[C@@H](CCC(=O)O)C(=O)N[C@H](C(N)=O)[C@@H](C)CC)NC(=O)[C@H](Cc4c[nH]c5ccccc45)NC(=O)[C@H](CC(C)C)NC(=O)[C@H](CCCCN)NC(=O)[C@H](CSSC[C@H](NC(=O)[C@H]([C@@H](C)O)NC(=O)[C@H](Cc4c[nH]c5ccccc45)NC(=O)[C@H](CCCC)NC(=O)[C@H](Cc4c[nH]c5ccccc45)NC(=O)[C@H](CCCCN)NC(=O)[C@H](CCC(N)=O)NC1=O)C(=O)N[C@@H](CC(=O)O)C(=O)N[C@@H](CCC(=O)O)C(=O)N[C@@H](CCCCN)C(=O)N[C@@H](CCCNC(=N)N)C(=O)N[C@@H](C)C(=O)N3)NC(=O)[C@H](CCCNC(=N)N)NC(=O)[C@H](CC(C)C)NC(=O)CNC(=O)[C@H](CCC(=O)O)NC2=O [compound 736]	0.00146	0.547	375	1730	2.52	
C#CC[C@H](NC(=O)[C@@H](N)CCC(=O)O)C(=O)N[C@H]1CSSC[C@@H]2NC(=O)[C@@H]3CSSC[C@@H](C(=O)N[C@@H](CCCNC(=N)N)C(=O)N[C@@H](CCCCN)C(=O)N[C@@H](CCC(=O)O)C(=O)N[C@H](C(N)=O)[C@@H](C)CC)NC(=O)[C@H](Cc4c[nH]c5ccccc45)NC(=O)[C@H](CC(C)C)NC(=O)[C@H](CCCCN)NC(=O)[C@H](CSSC[C@H](NC(=O)[C@H]([C@@H](C)O)NC(=O)[C@H](Cc4c[nH]c5ccccc45)NC(=O)[C@H](CCCC)NC(=O)[C@H](Cc4c[nH]c5ccccc45)NC(=O)[C@H](CCCCN)NC(=O)[C@H](CCC(N)=O)NC1=O)C(=O)N[C@@H](CC(=O)O)C(=O)N[C@@H](CO)C(=O)N[C@@H](CCCCN)C(=O)N[C@@H](CCCNC(=N)N)C(=O)N[C@@H](CCC(=O)O)C(=O)N3)NC(=O)[C@H](CCCNC(=N)N)NC(=O)[C@H](CC(C)C)NC(=O)CNC(=O)[C@H](CCC(=O)O)NC2=O [compound 738]	0.000563	0.246	437	1071	0.563	0.000525
C#CC[C@H](N)C(=O)N[C@@H](CCC(=O)O)C(=O)N[C@H]1CSSC[C@@H]2NC(=O)[C@@H]3CSSC[C@@H](C(=O)N[C@@H](CCCNC(=N)N)C(=O)N[C@@H](CCCCN)C(=O)N[C@@H](CCC(=O)O)C(=O)N[C@H](C(N)=O)[C@@H](C)CC)NC(=O)[C@H](Cc4c[nH]c5ccccc45)NC(=O)[C@H](CC(C)C)NC(=O)[C@H](CCCCN)NC(=O)[C@H](CSSC[C@H](NC(=O)[C@H]([C@@H](C)O)NC(=O)[C@H](Cc4c[nH]c5ccccc45)NC(=O)[C@H](CCCC)NC(=O)[C@H](Cc4c[nH]c5ccccc45)NC(=O)[C@H](CCCCN)NC(=O)[C@H](CCC(N)=O)NC1=O)C(=O)N[C@@H](CC(=O)O)C(=O)N[C@@H](CCC(=O)O)C(=O)N[C@@H](CCCCN)C(=O)N[C@@H](CCCNC(=N)N)C(=O)N[C@@H](C)C(=O)N3)NC(=O)[C@H](CCCNC(=N)N)NC(=O)[C@H](CC(C)C)NC(=O)CNC(=O)[C@H](CCC(=O)O)NC2=O [compound 739]	0.00555	1.28	231	395	2.19	
C#CC[C@H](NC(=O)[C@@H](N)CCC(=O)O)C(=O)N[C@@H](CCC(=O)O)C(=O)N[C@H]1CSSC[C@@H]2NC(=O)[C@@H]3CSSC[C@@H](C(=O)N[C@@H](CCCNC(=N)N)C(=O)N[C@@H](CCCCN)C(=O)N[C@@H](CCC(=O)O)C(=O)N[C@H](C(N)=O)[C@@H](C)CC)NC(=O)[C@H](Cc4c[nH]c5ccccc45)NC(=O)[C@H](CC(C)C)NC(=O)[C@H](CCCCN)NC(=O)[C@H](CSSC[C@H](NC(=O)[C@H]([C@@H](C)O)NC(=O)[C@H](Cc4c[nH]c5ccccc45)NC(=O)[C@H](CCCC)NC(=O)[C@H](Cc4c[nH]c5ccccc45)NC(=O)[C@H](CCCCN)NC(=O)[C@H](CCC(N)=O)NC1=O)C(=O)N[C@@H](CC(=O)O)C(=O)N[C@@H](CCC(=O)O)C(=O)N[C@@H](CCCCN)C(=O)N[C@@H](CCCNC(=N)N)C(=O)N[C@@H](C)C(=O)N3)NC(=O)[C@H](CCCNC(=N)N)NC(=O)[C@H](CC(C)C)NC(=O)CNC(=O)[C@H](CCC(=O)O)NC2=O [compound 741]	0.00559	1.68	302	1014	5.66	
C#CC[C@H](N)C(=O)N[C@@H](CCC(=O)O)C(=O)N[C@H]1CSSC[C@@H]2NC(=O)[C@@H]3CSSC[C@@H](C(=O)N[C@@H](CCCNC(=N)N)C(=O)N[C@@H](CCCCN)C(=O)N[C@@H](CCC(=O)O)C(=O)N[C@H](C(N)=O)[C@@H](C)CC)NC(=O)[C@H](Cc4c[nH]c5ccccc45)NC(=O)[C@H](CC(C)C)NC(=O)[C@H](CCCCN)NC(=O)[C@H](CSSC[C@H](NC(=O)[C@H]([C@@H](C)O)NC(=O)[C@H](Cc4c[nH]c5ccccc45)NC(=O)[C@H](CCCC)NC(=O)[C@H](Cc4c[nH]c5ccccc45)NC(=O)[C@H](CCCCN)NC(=O)[C@H](CCC(N)=O)NC1=O)C(=O)N[C@@H](CC(=O)O)C(=O)N[C@@H](CO)C(=O)N[C@@H](CCC(=O)O)C(=O)N[C@@H](CCCNC(=N)N)C(=O)N[C@@H](C)C(=O)N3)NC(=O)[C@H](CCCNC(=N)N)NC(=O)[C@H](CC(C)C)NC(=O)CNC(=O)[C@H](CCC(=O)O)NC2=O [compound 742]	0.00414	1.72	416	333	1.38	
C#CC[C@H](N)C(=O)N[C@@H](CCC(=O)O)C(=O)N[C@H]1CSSC[C@@H]2NC(=O)[C@@H]3CSSC[C@@H](C(=O)N[C@@H](CCCNC(=N)N)C(=O)N[C@@H](CCCCN)C(=O)N[C@@H](CCC(=O)O)C(=O)N[C@H](C(N)=O)[C@@H](C)CC)NC(=O)[C@H](Cc4c[nH]c5ccccc45)NC(=O)[C@H](CC(C)C)NC(=O)[C@H](CCCCN)NC(=O)[C@H](CSSC[C@H](NC(=O)[C@H]([C@@H](C)O)NC(=O)[C@H](Cc4c[nH]c5ccccc45)NC(=O)[C@H](CCCC)NC(=O)[C@H](Cc4c[nH]c5ccccc45)NC(=O)[C@H](CCCCN)NC(=O)[C@H](CCC(N)=O)NC1=O)C(=O)N[C@@H](CC(=O)O)C(=O)N[C@@H](CO)C(=O)N[C@@H](CCCCN)C(=O)N[C@@H](CCCNC(=N)N)C(=O)N[C@@H](CCC(=O)O)C(=O)N3)NC(=O)[C@H](CCCNC(=N)N)NC(=O)[C@H](CC(C)C)NC(=O)CNC(=O)[C@H](CCC(=O)O)NC2=O [compound 743]	0.00136	0.67	494	1727	2.34	
